Experimental data published in US4740233A, “Substituted 1,2,4-triazolo[1,5-a]-pyrimidine-2-sulfonamides and compositions and methods of controlling undesired vegetation and suppressing the nitrification of ammonium nitrogen in soil” (The Dow Chemical Company, priority 1986, dated 1988).

What was measured:
[1] = system: yellow foxtail; experiment: Preemergent control of plant species; type: in vivo, Setaria lutescens; conditions: Setaria, pre-emergence, 336 h; 0.25 lb/acre; read-out: percent preemergent control
In short: (§1)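 Seeds planted in good agricultural soil beds; active ingredients then applied to the bed surface as aqueous emulsion at listed rates. Beds kept two weeks in greenhouse with watering. Control scored against water-treated beds.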

[2] = system: barnyardgrass; experiment: Preemergent control of plant species; type: in vivo, Echinochloa crusgalli; conditions: Echinochloa crus-galli, pre-emergence, 336 h; 0.25 lb/acre; read-out: percent preemergent control
In short: as §1

[3] = system: rape; experiment: Preemergent control of plant species; type: in vivo, Brassica napus; conditions: Brassica napus, pre-emergence, 336 h; 0.25 lb/acre; read-out: percent preemergent control
In short: as §1

[4] = system: johnson grass; experiment: Preemergent control of plant species; type: in vivo, Sorghum halepense; conditions: Sorghum halepense, pre-emergence, 336 h; 0.25 lb/acre; read-out: percent preemergent control
In short: as §1

[5] = system: pigweed; experiment: Preemergent control of plant species; type: in vivo, Amaranthus spp.; conditions: Amaranthus retroflexus, pre-emergence, 336 h; 0.25 lb/acre; read-out: percent preemergent control
In short: as §1

[6] = system: rice; experiment: Preemergent control of plant species; type: in vivo, Oryza sativa; conditions: Oryza sativa, pre-emergence, 336 h; 0.25 lb/acre; read-out: percent preemergent control
In short: as §1

[7] = system: corn; experiment: Preemergent control of plant species; type: in vivo, Zea mays; conditions: Zea mays, pre-emergence, 336 h; 0.25 lb/acre; read-out: percent preemergent control
In short: as §1

[8] = system: sorghum; experiment: Preemergent control of plant species; type: in vivo, Sorghum vulgare; conditions: Sorghum, pre-emergence, 336 h; 0.25 lb/acre; read-out: percent preemergent control
In short: as §1

[9] = system: sugar beet; experiment: Preemergent control of plant species; type: in vivo, Beta saccharifera; conditions: Beta vulgaris, pre-emergence, 336 h; 0.25 lb/acre; read-out: percent preemergent control
In short: as §1

[10] = system: yellow nutsedge; experiment: Control of aquatic plant species (paddy water); type: in vivo, Cyperus esculentus; conditions: Cyperus, 216 h, nine days, read-out: Percent control; for pest or weed control at 250 g/ha: 0.25 Kg/Ha
In short: (§2)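 Percent control is scored nine days after treatment. Plants go into about 2 inches of soil at the 1-2 inch stage and are flooded to about 1 inch, then test compound in acetone concentrate is injected into the standing water at a volume chosen for the desired concentration.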

[11] = system: crabgrass; experiment: Preemergent control of plant species; type: in vivo, Digitaria spp.; conditions: Digitaria sanguinalis, pre-emergence, 336 h; 0.25 lb/acre; read-out: percent preemergent control
In short: as §1

[12] = system: velvetleaf; experiment: Preemergent control of plant species; type: in vivo, Abutilon theophrasti; conditions: Abutilon theophrasti, pre-emergence, 336 h; 0.25 lb/acre; read-out: percent preemergent control
In short: as §1

[13] = system: jimsonweed; experiment: Preemergent control of plant species; type: in vivo, Datura stramonium; conditions: Datura stramonium, pre-emergence, 336 h; 0.25 lb/acre; read-out: percent preemergent control
In short: as §1

[14] = system: sprangletop; experiment: Control of aquatic plant species (paddy water); type: in vivo, Leptochloa filiformis; conditions: Leptochloa filiformis, 216 h, nine days, read-out: Percent control; for pest or weed control at 250 g/ha: 0.25 Kg/Ha
In short: as §2

[15] = system: cotton; experiment: Preemergent control of plant species; type: in vivo, Gossypium spp.; conditions: Gossypium hirsutum, pre-emergence, 336 h; 0.25 lb/acre; read-out: percent preemergent control
In short: as §1

[16] = system: yellow nutsedge; experiment: Preemergent control of plant species; type: in vivo, Cyperus esculentus; conditions: Cyperus, pre-emergence, 336 h; 0.25 lb/acre; read-out: percent preemergent control
In short: as §1

[17] = system: annual morning glory; experiment: Preemergent control of plant species; type: in vivo, Ipomoea spp.; conditions: Ipomoea, pre-emergence, 336 h; 0.25 lb/acre; read-out: percent preemergent control
In short: as §1

[18] = system: soybean; experiment: Preemergent control of plant species; type: in vivo, Glycine max.; conditions: Glycine max, pre-emergence, 336 h; 0.25 lb/acre; read-out: percent preemergent control
In short: as §1

[19] = system: wild oats; experiment: Preemergent control of plant species; type: in vivo; conditions: Avena fatua, pre-emergence, 336 h; 0.25 lb/acre; read-out: percent preemergent control
In short: as §1

[20] = system: rice; experiment: Control of aquatic plant species (paddy water); type: in vivo, Oryza sativa; conditions: Oryza sativa, 216 h, nine days, read-out: Percent control; for pest or weed control at 250 g/ha: 0.25 Kg/Ha
In short: as §2

[21] = system: nitrification of ammonium nitrogen; experiment: Suppression of nitrification of ammonium nitrogen in soil; conditions: 27° C.
In short: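 Value is % NH4-N remaining after a two-week, 27° C incubation of treated soil held at 1/3 bar tension moisture. Nitrate was measured with an ion-selective electrode after extraction with ammonium sulfate solution and 10 min shaking.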

[22] = system: wheat; experiment: Preemergent control of plant species; type: in vivo, Triticum aestivum; conditions: Triticum aestivum, pre-emergence, 336 h; 0.25 lb/acre; read-out: percent preemergent control
In short: as §1

[23] = system: barnyardgrass; experiment: Control of aquatic plant species (paddy water); type: in vivo, Echinochloa crusgalli; conditions: Echinochloa crus-galli, 216 h, nine days, read-out: Percent control; for pest or weed control at 250 g/ha: 0.25 Kg/Ha
Experimental: In testing for such utility, the plant species to be tested were transplanted into 16 oz. containers into about 2 inches of soil when they were in the 1-2 inch stage and then flooded to a depth of about 1 inch. An acetone concentrate of the chemical to be tested was then injected into the paddy water, the volume injected being varied as desired to provide the desired concentration. Percent control was evaluated nine days after application.

Compound | pest or weed control at 280.212 g/ha [1] | pest or weed control at 280.212 g/ha [2] | plant injury at 280.212 g/ha [3] | pest or weed control at 280.212 g/ha [4] | pest or weed control at 280.212 g/ha [5] | plant injury at 280.212 g/ha [6] | plant injury at 280.212 g/ha [7] | plant injury at 280.212 g/ha [8] | plant injury at 280.212 g/ha [9] | pest or weed control at 280.212 g/ha [11] | pest or weed control at 280.212 g/ha [12] | pest or weed control at 280.212 g/ha [13] | plant injury at 280.212 g/ha [15] | pest or weed control at 280.212 g/ha [16] | pest or weed control at 280.212 g/ha [17] | plant injury at 280.212 g/ha [18] | pest or weed control at 280.212 g/ha [19] | % NH4-N Remaining After 2 Weeks Incubation ([21]; 0.1 ppm) | % NH4-N Remaining After 2 Weeks Incubation ([21]; 1 ppm) | plant injury at 280.212 g/ha [22] | further results
Cc1cc(C)n2nc(S(=O)(=O)Nc3ccccc3Br)nc2n1 [Compound 41] | 30% | 80% | 80% | 35% | 0% | 0% | 0% | 20% | 80% | 10% | 10% | 0% | 40% | 70% | 10% | 25% | 0% | 54% | 87% | 0% | pest or weed control at 1000 g/ha ([10]; 1.0 Kg/Ha): 80%; pest or weed control at 1000 g/ha ([14]; 1.0 Kg/Ha): 95%; pest or weed control at 1000 g/ha ([20]; 1.0 Kg/Ha): 97%; % NH4-N Remaining After 2 Weeks Incubation ([21]; 0.06 ppm): 23%; % NH4-N Remaining After 2 Weeks Incubation ([21]; 10 ppm): 100%; pest or weed control at 1000 g/ha ([23]; 1.0 Kg/Ha): 99%
Cc1cc(C)n2nc(S(=O)(=O)Nc3ccccc3C(F)(F)F)nc2n1 [Compound 13, 5,7-Dimethyl-N-(2-trifluoromethylphenyl)-1,2,4-triazolo[1,5-a]pyrimidine-2-sulfonamide] | 90% | 95% | 98% | 95% | 95% | 95% | 80% | 98% | 98% | 80% | 95% | 70% | 95% | 98% | 90% | 95% | 10% |  | 89% | 20% | pest or weed control at 250 g/ha [10]: 93%; pest or weed control at 250 g/ha [14]: 10%; pest or weed control at 250 g/ha [20]: 97%; % NH4-N Remaining After 2 Weeks Incubation ([21]; 0.06 ppm): 73%; % NH4-N Remaining After 2 Weeks Incubation ([21]; 0.125 ppm): 78%; % NH4-N Remaining After 2 Weeks Incubation ([21]; 0.25 ppm): 81%; % NH4-N Remaining After 2 Weeks Incubation ([21]; 0.5 ppm): 85%; pest or weed control at 250 g/ha [23]: 93%
Cc1cc(C)n2nc(S(=O)(=O)Nc3c(Cl)cccc3Br)nc2n1 [Compound 39] | 97% | 97% | 95% | 95% | 100% | 97% | 95% | 95% | 97% | 70% | 95% | 100% | 95% | 100% | 90% | 95% | 0% | 78% | 91% | 0% | pest or weed control at 31 g/ha ([10]; 0.031 Kg/Ha): 85%; pest or weed control at 250 g/ha [10]: 99%; pest or weed control at 31 g/ha ([14]; 0.031 Kg/Ha): 0%; pest or weed control at 250 g/ha [14]: 75%; pest or weed control at 31 g/ha ([20]; 0.031 Kg/Ha): 0%; pest or weed control at 250 g/ha [20]: 75%; % NH4-N Remaining After 2 Weeks Incubation ([21]; 0.01 ppm): 49%; % NH4-N Remaining After 2 Weeks Incubation ([21]; 10 ppm): 100%; pest or weed control at 31 g/ha ([23]; 0.031 Kg/Ha): 20%; pest or weed control at 250 g/ha [23]: 99%
COC(=O)c1cccc(C)c1NS(=O)(=O)c1nc2nc(C)cc(C)n2n1 [Compound 50] | 95% | 95% | 95% | 95% | 100% | 97% | 99% | 100% | 100% | 25% | 93% | 100% | 80% | 99% | 80% | 95% | 60% | 38% | 73% | 100% | pest or weed control at 125 g/ha ([10]; 0.125 Kg/Ha): 97%; pest or weed control at 125 g/ha ([14]; 0.125 Kg/Ha): 97%; pest or weed control at 125 g/ha ([20]; 0.125 Kg/Ha): 97%; % NH4-N Remaining After 2 Weeks Incubation ([21]; 0.01 ppm): 0%; % NH4-N Remaining After 2 Weeks Incubation ([21]; 10 ppm): 92%; pest or weed control at 125 g/ha ([23]; 0.125 Kg/Ha): 97%
